This note sets out measurements from BindingDB's records for doi:10.1021/jm9004225 (National Institute On Drug Abuse and The National Institute …, 2009).

By Ki is commonly meant the equilibrium dissociation constant of an inhibitor or competing ligand from its target.

Some results are limits rather than exact numbers.

This assay is described as follows: Displacement of [3H]U69593 from human recombinant kappa opioid receptor expressed in CHO cells. On the technique in general: In a radioligand displacement assay an active substance lowers the binding of a labelled ligand.

Take `CC[C@]12CCN(C)C[C@H]1Oc1ccc(O)cc12` [4aR,9aS-(+)-cis-4a-Ethyl-2-methyl-1,2,3,4,4a,9a-hexahydrobenzofuro[2,3-c]pyridin-6-ol]: the inhibition constant (Ki) was over 10 µM.
